Laboratory results published in ChEMBL document CHEMBL4376828, “Small-Molecule Inhibitors of Necroptosis: Current Status and Perspectives” (J Med Chem, 2020).

Tests used:
[1] = tested on: HT-29; experiment: Anti-neprotic activity in human HT-29 cells assessed as reduction in TSZ-induced necroptosis incubated for 24 hrs by cell titer glo-based luminescence assay; assay type: functional; details: HT-29, 24 h
[2] = molecular target: T1, Receptor-interacting serine/threonine-protein kinase 2 (Homo sapiens, UniProt O43353); experiment: Inhibition of recombinant human His-tagged RIPK2 (8 to 317 residues) incubated for 1 hr by ADP-Glo assay
[3] = molecular target: Tyrosine-protein kinase ABL1 (Homo sapiens, UniProt P00519); experiment: Inhibition of Abl (unknown origin) incubated for 1 hr by ADP-Glo assay
[4] = tested on: Jurkat; experiment: Anti-neprotic activity in human Jurkat cells FADD defient assessed as reduction in TNFalpha-induced necroptosis preincubated for 30 mins followed by addition of TNFalpha-stimulation and further incubated for over night by Cell Titer Glo assay; assay type: functional, cell-based
[5] = molecular target: T2, Receptor-interacting serine/threonine-protein kinase 1 (Homo sapiens) (UniProt Q13546)
T2 sequence (whole entry): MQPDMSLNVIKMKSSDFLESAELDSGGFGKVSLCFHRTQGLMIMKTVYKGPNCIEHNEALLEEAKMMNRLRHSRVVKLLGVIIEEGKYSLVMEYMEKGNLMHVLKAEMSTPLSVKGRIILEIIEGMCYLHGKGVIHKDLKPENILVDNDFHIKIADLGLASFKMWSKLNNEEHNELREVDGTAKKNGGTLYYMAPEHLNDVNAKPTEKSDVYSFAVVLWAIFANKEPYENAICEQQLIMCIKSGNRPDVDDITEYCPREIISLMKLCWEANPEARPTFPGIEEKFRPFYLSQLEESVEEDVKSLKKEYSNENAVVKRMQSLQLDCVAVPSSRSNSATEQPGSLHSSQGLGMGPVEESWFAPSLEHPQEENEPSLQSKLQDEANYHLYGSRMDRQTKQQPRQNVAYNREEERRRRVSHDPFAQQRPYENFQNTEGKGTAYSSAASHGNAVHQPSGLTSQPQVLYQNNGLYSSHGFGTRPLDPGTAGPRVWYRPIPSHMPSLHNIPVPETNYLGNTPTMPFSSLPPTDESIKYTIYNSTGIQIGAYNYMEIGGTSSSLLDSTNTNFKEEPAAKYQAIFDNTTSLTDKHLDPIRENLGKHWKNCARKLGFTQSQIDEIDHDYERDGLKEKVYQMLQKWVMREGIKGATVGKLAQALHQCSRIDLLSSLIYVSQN

[6] = molecular target: T3, Receptor-interacting serine/threonine-protein kinase 3 (Homo sapiens, UniProt Q9Y572); experiment: Inhibition of human full length N-terminal GST-tagged RIPK3 expressed in baculovirus infected sf9 insect cells assessed as reduction in MBP phosphorylation using MBP as substrate by kinase-Glo luminescence assay
[7] = molecular target: T3, Receptor-interacting serine/threonine-protein kinase 3; experiment: Inhibition of human RIPK3 using MBP as substrate by [gamma33-ATP] based radiometric assay
[8] = molecular target: T1, Receptor-interacting serine/threonine-protein kinase 2; experiment: Inhibition of human RIPK2 using MBP as substrate by [gamma33-ATP] based radiometric assay
[9] = molecular target: T4, Dual serine/threonine and tyrosine protein kinase (Homo sapiens, UniProt Q6XUX3); experiment: Inhibition of human RIPK5 using MBP as substrate by [gamma33-ATP] based radiometric assay
T4 sequence (Q6XUX3 whole entry): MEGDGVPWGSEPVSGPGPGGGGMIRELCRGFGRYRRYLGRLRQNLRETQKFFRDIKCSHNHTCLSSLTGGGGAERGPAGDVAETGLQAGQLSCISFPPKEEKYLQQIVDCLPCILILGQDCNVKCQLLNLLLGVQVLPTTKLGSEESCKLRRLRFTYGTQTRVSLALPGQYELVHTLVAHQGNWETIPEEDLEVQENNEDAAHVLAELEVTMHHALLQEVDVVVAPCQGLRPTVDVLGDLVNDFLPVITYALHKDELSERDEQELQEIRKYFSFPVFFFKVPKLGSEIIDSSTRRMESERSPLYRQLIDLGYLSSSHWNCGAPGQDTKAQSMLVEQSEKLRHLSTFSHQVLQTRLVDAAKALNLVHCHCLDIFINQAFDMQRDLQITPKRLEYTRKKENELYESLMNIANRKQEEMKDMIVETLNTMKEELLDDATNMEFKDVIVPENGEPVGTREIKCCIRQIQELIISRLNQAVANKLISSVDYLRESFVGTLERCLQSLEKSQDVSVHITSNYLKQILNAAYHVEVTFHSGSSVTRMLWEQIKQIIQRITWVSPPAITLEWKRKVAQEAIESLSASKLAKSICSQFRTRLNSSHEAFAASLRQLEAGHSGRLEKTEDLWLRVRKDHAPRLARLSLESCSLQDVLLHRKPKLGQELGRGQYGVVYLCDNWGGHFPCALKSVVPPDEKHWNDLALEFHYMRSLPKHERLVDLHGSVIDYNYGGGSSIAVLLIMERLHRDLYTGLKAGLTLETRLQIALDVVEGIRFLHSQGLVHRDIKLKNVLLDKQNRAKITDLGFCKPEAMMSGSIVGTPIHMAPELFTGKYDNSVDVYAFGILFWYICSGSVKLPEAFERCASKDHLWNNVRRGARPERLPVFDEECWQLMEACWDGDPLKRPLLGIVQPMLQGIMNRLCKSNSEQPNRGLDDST

[10] = molecular target: T5, Receptor-interacting serine/threonine-protein kinase 1 (Homo sapiens, UniProt Q13546); experiment: Inhibition of human RIPK1 using MBP as substrate by [gamma33-ATP] based radiometric assay
T5 sequence (Q13546 whole entry): T2 sequence (whole entry)

[11] = tested on: Fibroblast; experiment: Anti-neprotic activity in mouse fibroblasts cells; assay type: functional, cell-based
[12] = molecular target: T6, Indoleamine 2,3-dioxygenase 1 (Homo sapiens, UniProt P14902); experiment: Inhibition of recombinant human IDO using L-Trp as substrate incubated for 60 mins
[13] = molecular target: T7, Mixed lineage kinase domain-like protein (Homo sapiens) (UniProt Q8NB16)
T7 sequence (whole entry): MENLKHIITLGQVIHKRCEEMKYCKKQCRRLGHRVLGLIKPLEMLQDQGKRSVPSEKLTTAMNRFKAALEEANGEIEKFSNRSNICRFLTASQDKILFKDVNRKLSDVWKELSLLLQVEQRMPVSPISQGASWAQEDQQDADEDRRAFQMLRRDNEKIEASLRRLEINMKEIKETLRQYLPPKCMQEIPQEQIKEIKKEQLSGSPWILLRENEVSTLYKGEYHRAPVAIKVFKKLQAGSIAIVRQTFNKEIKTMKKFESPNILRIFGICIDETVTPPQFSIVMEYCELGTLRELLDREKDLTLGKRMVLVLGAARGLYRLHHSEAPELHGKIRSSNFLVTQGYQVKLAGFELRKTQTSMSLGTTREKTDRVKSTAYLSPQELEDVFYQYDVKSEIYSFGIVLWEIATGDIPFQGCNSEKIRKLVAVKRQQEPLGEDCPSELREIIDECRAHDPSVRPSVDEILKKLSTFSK

[14] = molecular target: T5, Receptor-interacting serine/threonine-protein kinase 1; experiment: Inhibition of GSK657 binding to human RIPK1 (1 to 328) by fluorescence Polarization assay
[15] = molecular target: T5, Receptor-interacting serine/threonine-protein kinase 1; experiment: Inhibition of human RIPK1 by ADP-Glo assay
[16] = molecular target: T6, Indoleamine 2,3-dioxygenase 1; experiment: Inhibition of IDO (unknown origin)
[17] = molecular target: T3, Receptor-interacting serine/threonine-protein kinase 3; experiment: Inhibition of recombinant RIPK3 (unknown origin) using MBP as substrate preincubated for 15 mins followed by addition of MBP and measured after 120 min ADP-Glo kinase assay
[18] = tested on: Mus musculus; experiment: Antiinflammatory Activity in C57BL/6 mouse TNFalpha-induced mouse model of SIRS at 30 mg/kg, ip pretreated for 15 mins followed by TNFalpha-stimulation and measured after 72 hrs relative to control; assay type: functional
[19] = molecular target: T8, Receptor-interacting serine/threonine-protein kinase 1 (Mus musculus, UniProt Q60855); experiment: Inhibition of mouse RIPK1; details: read-out: Ki(app)
T8 sequence (Q60855 whole entry): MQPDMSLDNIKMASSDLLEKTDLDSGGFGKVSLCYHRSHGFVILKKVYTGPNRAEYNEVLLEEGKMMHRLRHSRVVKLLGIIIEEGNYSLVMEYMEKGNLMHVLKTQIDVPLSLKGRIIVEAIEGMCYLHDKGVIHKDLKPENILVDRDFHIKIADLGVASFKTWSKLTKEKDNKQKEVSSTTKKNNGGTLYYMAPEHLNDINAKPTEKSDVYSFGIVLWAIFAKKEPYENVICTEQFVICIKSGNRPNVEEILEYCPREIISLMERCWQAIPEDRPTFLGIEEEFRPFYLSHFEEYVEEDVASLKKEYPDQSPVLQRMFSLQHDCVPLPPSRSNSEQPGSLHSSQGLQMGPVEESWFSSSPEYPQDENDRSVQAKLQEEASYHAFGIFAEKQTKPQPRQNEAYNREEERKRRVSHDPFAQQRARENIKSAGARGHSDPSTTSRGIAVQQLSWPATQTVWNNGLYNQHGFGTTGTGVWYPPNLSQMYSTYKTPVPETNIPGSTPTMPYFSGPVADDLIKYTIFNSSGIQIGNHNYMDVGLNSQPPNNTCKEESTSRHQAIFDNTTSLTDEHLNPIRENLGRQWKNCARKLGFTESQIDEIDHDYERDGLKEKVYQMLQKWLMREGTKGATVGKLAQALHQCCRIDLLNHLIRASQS

[20] = tested on: Mus musculus; experiment: Antiinflammatory activity in TNF-induced mouse model of SIRS assessed as reduction in TNF-induced body temperature at 5 mg/kg, po and measured after 2 to 4 hrs by infrared ear Thermometric method relative to control; assay type: functional; parameters: scale not given: the % may be the effect or the level left
[21] = tested on: L929; experiment: Anti-neprotic activity in mouse L929 cells assessed as reduction in TNF-induced necroptosis and measured every 1 hr by SYTOX Green dye based fluorescence assay; assay type: functional, cell-based; details: L929, 1 h
[22] = tested on: Mus musculus; experiment: Antiinflammatory Activity in C57BL/6 mouse TNFalpha-induced mouse model of SIRS assessed as reduction in TNF-induced body temperature at 0.226 mg/kg, iv pretreated for 15 mins followed by TNFalpha-stimulation and measured up to 4 days by thermometric method relative to control; assay type: functional; parameters: scale not given: the % may be the effect or the level left
[23] = molecular target: T5, Receptor-interacting serine/threonine-protein kinase 1; experiment: Inhibition of recombinant human GST-tagged RIPK1 (1 to 479 residues) incubated for 4 hrs by ADP-Glo assay
[24] = tested on: MEF; experiment: Anti-neprotic activity in mouse MEF cells assessed as reduction in TNF-induced necroptosis and measured every 1 hr in presence of z-VAD by SYTOX Green dye based fluorescence assay; assay type: functional, cell-based
[25] = tested on: Mus musculus; experiment: Antiinflammatory Activity in C57BL/6 mouse TNFalpha-induced mouse model of SIRS assessed as reduction in TNF-induced body temperature at 0.124 mg/kg, iv pretreated for 15 mins followed by TNFalpha-stimulation and measured up to 4 days by thermometric method relative to control; assay type: functional; parameters: scale not given: the % may be the effect or the level left
[26] = molecular target: T5, Receptor-interacting serine/threonine-protein kinase 1; experiment: Inhibition of RIPK1 (unknown origin)

T6 sequence (P14902 whole entry, the tested form may be a part): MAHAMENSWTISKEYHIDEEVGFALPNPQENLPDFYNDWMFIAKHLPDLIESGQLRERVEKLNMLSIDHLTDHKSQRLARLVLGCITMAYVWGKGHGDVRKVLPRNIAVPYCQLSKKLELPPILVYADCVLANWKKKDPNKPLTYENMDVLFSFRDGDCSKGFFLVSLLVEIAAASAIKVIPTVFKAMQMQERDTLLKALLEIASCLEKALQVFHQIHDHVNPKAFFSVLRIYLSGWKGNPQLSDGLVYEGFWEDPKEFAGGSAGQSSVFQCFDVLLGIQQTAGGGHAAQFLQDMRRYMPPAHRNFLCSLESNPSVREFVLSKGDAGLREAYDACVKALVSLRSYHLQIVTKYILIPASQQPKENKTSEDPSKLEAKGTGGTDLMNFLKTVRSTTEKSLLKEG
T3 sequence (Q9Y572 whole entry): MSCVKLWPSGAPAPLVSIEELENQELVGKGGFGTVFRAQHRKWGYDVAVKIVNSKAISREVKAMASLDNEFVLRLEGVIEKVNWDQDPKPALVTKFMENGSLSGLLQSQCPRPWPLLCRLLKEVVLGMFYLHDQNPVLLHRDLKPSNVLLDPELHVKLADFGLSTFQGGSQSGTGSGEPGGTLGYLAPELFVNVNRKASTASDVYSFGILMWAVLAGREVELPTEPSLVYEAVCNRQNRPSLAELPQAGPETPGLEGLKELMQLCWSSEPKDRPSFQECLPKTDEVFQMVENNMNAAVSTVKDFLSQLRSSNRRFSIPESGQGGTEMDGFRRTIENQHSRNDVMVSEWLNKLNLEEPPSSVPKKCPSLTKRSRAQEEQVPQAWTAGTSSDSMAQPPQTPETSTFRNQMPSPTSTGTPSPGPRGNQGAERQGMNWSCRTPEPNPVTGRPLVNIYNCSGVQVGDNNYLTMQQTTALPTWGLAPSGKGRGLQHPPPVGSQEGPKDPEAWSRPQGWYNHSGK
T1 sequence (O43353 whole entry, the tested form may be a part): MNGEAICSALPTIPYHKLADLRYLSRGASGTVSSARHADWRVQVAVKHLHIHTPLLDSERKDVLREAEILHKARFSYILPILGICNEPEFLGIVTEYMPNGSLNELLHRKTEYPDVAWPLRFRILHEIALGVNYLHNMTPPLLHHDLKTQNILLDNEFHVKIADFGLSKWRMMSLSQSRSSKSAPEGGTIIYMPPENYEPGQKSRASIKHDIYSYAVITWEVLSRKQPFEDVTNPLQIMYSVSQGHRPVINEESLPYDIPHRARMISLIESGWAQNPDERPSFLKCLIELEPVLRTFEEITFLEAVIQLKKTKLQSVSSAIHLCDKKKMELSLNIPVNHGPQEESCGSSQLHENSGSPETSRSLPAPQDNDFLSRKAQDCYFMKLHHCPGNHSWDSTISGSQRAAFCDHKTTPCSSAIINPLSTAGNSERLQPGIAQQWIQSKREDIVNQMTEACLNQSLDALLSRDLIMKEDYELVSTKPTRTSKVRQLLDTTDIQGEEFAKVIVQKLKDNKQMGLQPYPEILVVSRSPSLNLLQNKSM
Tyrosine-protein kinase ABL1, sequence (P00519 whole entry): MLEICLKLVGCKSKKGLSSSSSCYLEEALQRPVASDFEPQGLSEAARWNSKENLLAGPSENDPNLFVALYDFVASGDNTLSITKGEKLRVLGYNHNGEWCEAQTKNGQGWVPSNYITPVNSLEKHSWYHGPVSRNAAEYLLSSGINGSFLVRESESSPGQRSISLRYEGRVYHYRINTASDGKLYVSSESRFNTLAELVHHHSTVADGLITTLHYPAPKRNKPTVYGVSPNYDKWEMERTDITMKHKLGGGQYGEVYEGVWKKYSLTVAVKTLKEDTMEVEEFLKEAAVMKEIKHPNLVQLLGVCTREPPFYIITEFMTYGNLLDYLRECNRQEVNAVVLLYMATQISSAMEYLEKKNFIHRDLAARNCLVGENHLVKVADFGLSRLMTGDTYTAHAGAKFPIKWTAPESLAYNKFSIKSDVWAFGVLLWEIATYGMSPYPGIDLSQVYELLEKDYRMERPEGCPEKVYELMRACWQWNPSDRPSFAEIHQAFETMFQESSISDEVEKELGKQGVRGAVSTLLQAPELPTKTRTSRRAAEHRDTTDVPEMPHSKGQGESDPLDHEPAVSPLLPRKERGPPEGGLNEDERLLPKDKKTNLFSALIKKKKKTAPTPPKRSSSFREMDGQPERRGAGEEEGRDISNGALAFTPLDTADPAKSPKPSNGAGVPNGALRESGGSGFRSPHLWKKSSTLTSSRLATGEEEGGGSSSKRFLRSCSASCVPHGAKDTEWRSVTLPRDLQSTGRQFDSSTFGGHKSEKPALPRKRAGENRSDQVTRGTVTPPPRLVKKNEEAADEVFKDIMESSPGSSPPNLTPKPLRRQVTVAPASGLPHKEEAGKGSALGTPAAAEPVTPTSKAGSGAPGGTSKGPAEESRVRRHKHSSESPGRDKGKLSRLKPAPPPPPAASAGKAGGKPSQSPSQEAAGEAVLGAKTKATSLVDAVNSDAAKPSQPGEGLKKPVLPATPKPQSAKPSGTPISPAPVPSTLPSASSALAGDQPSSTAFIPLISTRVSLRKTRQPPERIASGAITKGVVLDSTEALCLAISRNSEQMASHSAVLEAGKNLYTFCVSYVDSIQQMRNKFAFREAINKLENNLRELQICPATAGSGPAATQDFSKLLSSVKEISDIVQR

Cn1c(=O)c2c(nc(S(C)(=O)=O)n2C)n(C)c1=O
IC50 [1]: 390 nM

Cc1ccc(CCCCN2C(=O)N[C@H](Cc3c[nH]c4c(Cl)cccc34)C2=O)cc1C#Cc1cnc2cccnn12
IC50 [2]: 1190 nM | IC50 [3]: > 1000 nM

Nc1nccnc1C(=O)O[C@@H](C(=O)Nc1ccc(F)cc1)c1ccccc1
IC50 [4]: > 40000 nM | ΔTm [5]: -0.15 °C

COc1nccnc1NS(=O)(=O)c1ccc(NC(=O)/C=C/c2ccc([N+](=O)[O-])s2)cc1
IC50 [1]: < 200 nM

CC(C)(C)c1nc(-c2cccc(NS(=O)(=O)c3c(F)cccc3F)c2F)c(-c2ccnc(N)n2)s1 [DABRAFENIB]
IC50 [6]: 250 nM | IC50 [7]: 2 nM | IC50 [8]: 77 nM | IC50 [9]: 29400 nM | IC50 [10]: 53200 nM

CN(c1ccc(NC(=O)Nc2ccc(OC(F)(F)F)cc2)cc1)c1ccnc(Nc2cccc(S(N)(=O)=O)c2)n1 [GW806742X]
IC50 [11]: < 50 nM

O=C1NC(=S)NC1Cc1c[nH]c2ccccc12 (centres undefined)
IC50 [12]: 110 nM

C[C@@H](Oc1cc(-c2cnn(C3CCNCC3)c2)cnc1N)c1c(Cl)ccc(F)c1Cl [CRIZOTINIB]
IC50 [4]: > 40000 nM | ΔTm [13]: 5.63 °C | ΔTm [5]: 0.75 °C

CNC(=O)c1ccc2c(c1)ncn2-c1ccc(CC(=O)OC(C)(C)C)cc1
IC50 [14]: 0.9 nM | IC50 [15]: 0.3 nM

CN1C(=O)C(Cc2c[nH]c3ccccc23)NC1=S (centres undefined) [NECROSTATIN]
IC50 [16]: 100000 nM | IC50 [12]: 110 nM

Cn1c(=O)c2c(nc(S(C)(=O)=O)n2C)n(CC#Cc2cccc(O)c2)c1=O
IC50 [1]: 2 nM

CC(=O)Nc1nc2ccc(-c3cnc(Cl)c(CC(=O)Cc4ccccc4)c3)cc2s1
IC50 [17]: > 1000 nM | Activity [18]: 90%

COc1ccc2c(c1)CC[C@H](NC(=O)c1nc3n(n1)[C@H](c1ccccc1)CC3)C(=O)N2C
Ki [19]: 189 nM | Activity [20]: 100%

Cn1cc(-c2ccc3c(c2)CCN3C(=O)Cc2cccc(C(F)(F)F)c2)c2c(N)ncnc21
IC50 [21]: 0.4 nM | Activity [22]: 100%

Cn1cc(-c2ccc3c(c2F)CCN3C(=O)Cc2cccc(C(F)(F)F)n2)c2c(N)ncnc21
IC50 [23]: 69 nM | IC50 [21]: 0.1 nM | IC50 [24]: 4 nM | Activity [25]: 100%

Cc1cc(-c2cnc(N)c3c(-c4ccc5scnc5c4)csc23)n(C)n1
IC50 [14]: 8.6 nM | IC50 [15]: 6.5 nM

Cc1ccc(O)cc1Nc1ccnc2cc(-c3ccccn3)ccc12
IC50 [26]: 73.6 nM
